According to ChEMBL document CHEMBL1133899, “Amino acid derived sulfonamide hydroxamates as inhibitors of procollagen C-proteinase: solid-phase synthesis of ornithine analogues” (Bioorg Med Chem Lett, 2001):

Biological target: T1, Bone morphogenetic protein 1 (Homo sapiens, UniProt P13497)
T1 sequence (P13497 whole entry): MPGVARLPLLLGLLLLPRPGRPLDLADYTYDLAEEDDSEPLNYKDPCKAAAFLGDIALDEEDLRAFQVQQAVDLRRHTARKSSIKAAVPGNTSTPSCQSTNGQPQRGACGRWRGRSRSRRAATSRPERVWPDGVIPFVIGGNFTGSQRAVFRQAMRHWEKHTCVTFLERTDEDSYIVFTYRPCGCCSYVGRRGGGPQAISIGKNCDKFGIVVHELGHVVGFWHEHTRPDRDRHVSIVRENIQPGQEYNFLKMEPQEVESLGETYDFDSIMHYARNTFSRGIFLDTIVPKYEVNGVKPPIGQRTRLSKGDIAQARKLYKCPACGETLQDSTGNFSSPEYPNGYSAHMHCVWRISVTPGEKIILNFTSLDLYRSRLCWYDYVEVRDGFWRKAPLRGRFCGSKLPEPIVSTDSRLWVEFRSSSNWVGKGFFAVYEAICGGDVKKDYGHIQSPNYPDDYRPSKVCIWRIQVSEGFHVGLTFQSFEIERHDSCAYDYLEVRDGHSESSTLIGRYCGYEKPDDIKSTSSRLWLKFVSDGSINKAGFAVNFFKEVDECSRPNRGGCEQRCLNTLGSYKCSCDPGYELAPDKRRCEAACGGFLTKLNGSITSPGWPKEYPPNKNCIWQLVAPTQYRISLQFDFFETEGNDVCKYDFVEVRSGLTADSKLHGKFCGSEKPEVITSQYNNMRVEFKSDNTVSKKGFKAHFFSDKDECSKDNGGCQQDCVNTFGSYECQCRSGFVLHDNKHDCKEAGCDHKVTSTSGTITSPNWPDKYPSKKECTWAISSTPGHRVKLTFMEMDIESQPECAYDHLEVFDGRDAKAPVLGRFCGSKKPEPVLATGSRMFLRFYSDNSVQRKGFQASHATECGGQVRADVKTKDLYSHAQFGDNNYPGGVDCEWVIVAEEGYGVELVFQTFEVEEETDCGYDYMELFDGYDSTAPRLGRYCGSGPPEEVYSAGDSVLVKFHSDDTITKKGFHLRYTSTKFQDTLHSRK
Test: Inhibitory activity against procollagen C-Proteinase (PCP).

SMILES | IC50
COC(=O)[C@@H](Cc1ccccc1)NC(=O)NCCC[C@H](NS(=O)(=O)c1ccc(OC)cc1)C(=O)NO | 5900 nM
COc1ccc(S(=O)(=O)N(Cc2ccc3c(c2)OCO3)[C@H](CCCNC(=O)OCc2ccccc2Cl)C(=O)NO)cc1 | 3.9 nM
COc1ccc(S(=O)(=O)N(Cc2ccc3c(c2)OCO3)[C@H](CCCNC(=O)OCc2cccc([N+](=O)[O-])c2)C(=O)NO)cc1 | 38 nM
C[C@@H](NC(=O)NCCC[C@@H](NS(=O)(=O)c1ccccc1Cl)C(=O)NO)c1ccccc1 | 2300 nM
COC(=O)[C@@H](Cc1ccccc1)NC(=O)NCCC[C@@H](NS(=O)(=O)c1ccc(OC)cc1)C(=O)NO | 140 nM
COc1ccc(S(=O)(=O)N(Cc2ccc3c(c2)OCO3)[C@H](CCCNC(=O)c2ccccc2)C(=O)NO)cc1 | 98 nM
COc1ccc(S(=O)(=O)N[C@H](CCC/N=C(\S)NC2CCCCC2)C(=O)NO)cc1 | 1700 nM
CCOC(=O)NCCC[C@H](C(=O)NO)N(Cc1ccc2c(c1)OCO2)S(=O)(=O)c1ccc(OC)cc1 | 220 nM
C[C@@H](NC(=O)NCCC[C@@H](NS(=O)(=O)c1ccc(Cl)s1)C(=O)NO)c1ccccc1 | 9600 nM
COc1ccc(S(=O)(=O)N(C)[C@H](CCCNC(=O)NC(C)c2ccccc2)C(=O)NO)cc1 (stereo partly specified) | 2300 nM
COc1ccc(S(=O)(=O)N[C@H](CCCNC(=O)C(C)C)C(=O)NO)cc1 | 1400 nM
COc1ccc(S(=O)(=O)N(Cc2ccc3c(c2)OCO3)[C@H](CCCNC(=O)OCC(C)C)C(=O)NO)cc1 | 45 nM
CCCNC(=O)NCCC[C@H](C(=O)NO)N(Cc1ccc2c(c1)OCO2)S(=O)(=O)c1ccc(OC)cc1 | 97 nM
COc1ccc(S(=O)(=O)N(Cc2ccc3c(c2)OCO3)[C@H](CCCNC(=O)OCc2ccccc2)C(=O)NO)cc1 | 9 nM
COc1cc(C)c(S(=O)(=O)N[C@H](CCCNC(=O)N[C@H](C)c2ccccc2)C(=O)NO)c(C)c1 | 23000 nM
COc1ccc(S(=O)(=O)N(Cc2ccc3c(c2)OCO3)[C@H](CCCNC(=O)OCc2ccccc2Br)C(=O)NO)cc1 | 24 nM
COc1ccc(S(=O)(=O)N(Cc2ccc3c(c2)OCO3)[C@H](CCCNC(=O)NCCc2ccccc2)C(=O)NO)cc1 | 50 nM

SMILES | IC50
COc1ccc(S(=O)(=O)N[C@H](CCCNC(=O)NCCc2cccs2)C(=O)NO)cc1 | 78 nM
COc1ccc(S(=O)(=O)N(Cc2ccc3c(c2)OCO3)[C@H](CCCNC(=O)NCc2cccc(C)c2)C(=O)NO)cc1 | 50 nM
COc1ccc(S(=O)(=O)N(Cc2ccc3c(c2)OCO3)[C@H](CCCNC(=O)OCc2ccc([N+](=O)[O-])cc2)C(=O)NO)cc1 | 45 nM
COc1ccc(S(=O)(=O)N[C@@H](CCCNC(=O)NCCc2cccs2)C(=O)NO)cc1 | 5500 nM
COc1ccc(S(=O)(=O)N[C@@H](CCCNC(=O)N[C@H](C)c2cccc3ccccc23)C(=O)NO)cc1 | 1600 nM
COc1ccc(S(=O)(=O)N(C)[C@H](CCCNC(=O)Nc2ccccc2Cl)C(=O)NO)cc1 | 7200 nM
COc1ccc(S(=O)(=O)N[C@H](CCCNC(=O)N[C@H](C)c2cccc3ccccc23)C(=O)NO)cc1 | 160 nM
COc1ccc(S(=O)(=O)N(Cc2ccc3c(c2)OCO3)[C@H](CCCNC(=O)NCc2ccccc2)C(=O)NO)cc1 | 58 nM
COc1ccc(S(=O)(=O)N[C@H](CCCNC(=O)OC(C)(C)C)C(=O)NO)cc1 | 4500 nM
COc1ccc(S(=O)(=O)N[C@H](CCCNC(=O)C2CC2)C(=O)NO)cc1 | 770 nM
C[C@@H](NC(=O)NCCC[C@@H](NS(=O)(=O)c1ccc(F)cc1Cl)C(=O)NO)c1ccccc1 | 61000 nM
C[C@@H](NC(=O)NCCC[C@@H](NS(=O)(=O)c1ccc(Cl)cc1)C(=O)NO)c1ccccc1 | 910 nM
C[C@@H](NC(=O)NCCC[C@@H](NS(=O)(=O)c1ccc(S(=O)(=O)c2cccs2)cc1)C(=O)NO)c1ccccc1 | 5000 nM
COc1ccc(S(=O)(=O)N(Cc2cccnc2)[C@@H](C(=O)NO)C(C)C)cc1 [CGS-27023A] | 3000 nM
COc1ccc(S(=O)(=O)N[C@@H](CCCNC(=O)NC2CCCCC2)C(=O)NO)cc1 | 3600 nM
COc1ccc(S(=O)(=O)N(Cc2ccc3c(c2)OCO3)[C@H](CCCNC(=O)NCc2cccc3ccccc23)C(=O)NO)cc1 | 120 nM
COc1ccc(S(=O)(=O)N[C@H](CCCNC(=O)C2CCCCC2)C(=O)NO)cc1 | 1600 nM

Next, values leading:

IC50 | SMILES
110 nM | COc1ccc(S(=O)(=O)N[C@H](CCCNC(=O)N[C@H](C)c2ccccc2)C(=O)NO)cc1
92 nM | COc1ccc(S(=O)(=O)N[C@H](CCCNC(=O)Nc2ccccc2Cl)C(=O)NO)cc1
55 nM | COc1ccc(S(=O)(=O)N[C@H](CCCNC(=O)Nc2ccccc2)C(=O)NO)cc1
170 nM | COc1ccc(S(=O)(=O)N[C@H](CCCNC(=O)N[C@@H]2C[C@H]2c2ccccc2)C(=O)NO)cc1
160 nM | COc1ccc(S(=O)(=O)N[C@H](CCCNC(=O)Nc2cccc(F)c2)C(=O)NO)cc1
290 nM | COc1ccc(S(=O)(=O)N[C@@H](CCCNC(=O)NC2CC2c2ccccc2)C(=O)NO)cc1 (stereo partly specified)
4000 nM | COc1ccc(S(=O)(=O)N[C@@H](CCCNC(=O)Nc2cccc(F)c2)C(=O)NO)cc1
2100 nM | COc1ccc(S(=O)(=O)N[C@@H](CCCNC(=O)N[C@H](C)c2ccccc2)C(=O)NO)cc1
3400 nM | COc1ccc(S(=O)(=O)N[C@H](CCCNS(=O)(=O)c2ccccc2)C(=O)NO)cc1
260 nM | COc1ccc(S(=O)(=O)N[C@H](CCCNC(=O)Nc2ccccc2C)C(=O)NO)cc1
970 nM | COc1ccc(S(=O)(=O)N[C@H](CCCNC(=O)CCc2ccccc2)C(=O)NO)cc1
7800 nM | COc1ccc(S(=O)(=O)N[C@@H](CCCNC(=O)Nc2ccccc2Cl)C(=O)NO)cc1
6900 nM | COc1ccc(S(=O)(=O)N[C@@H](CCCNC(=O)Nc2ccccc2)C(=O)NO)cc1
990 nM | COc1ccc(S(=O)(=O)N[C@H](CCCNC(=S)NCc2ccccc2)C(=O)NO)cc1
1600 nM | COc1ccc(S(=O)(=O)N(C)[C@H](CCCNC(=O)Nc2ccccc2)C(=O)NO)cc1

Biological target: T1, Bone morphogenetic protein 1
Test: The compound was evaluated for its inhibitory effect against Procollagen C-terminal proteinase

SMILES | IC50
COc1ccc(S(=O)(=O)N[C@H](CCCNC(=O)N[C@H](C)c2ccccc2)C(=O)NO)cc1 | 110 nM
COc1ccc(S(=O)(=O)N[C@H](CCCNC(=O)NC2CCCCC2)C(=O)NO)cc1 | 230 nM
